From publication PMC9362525 (Diabetologia, 2022)
Read-outs that look alike come from different tables or passages of the source. One block for each molecule: values may come before it.

Experiments:
human β-cells = type: cell-based
perifused human islets = type: cell-based
[1] = system: isolated human adipocytes; type: cell-based; details: recombinant protein
[2] = system: patients with T2D and metabolic syndrome; set-up: species or system human; details: in vivo
[3] = type: in vivo, human; details: 6-week treatment period
[4] = type: in vivo, mice; details: 40 mg/kg
patients with T2DM = type: in vivo, human
HFD-fed C57BL/6J mice = type: in vivo, mouse; details: 8 weeks
[5] = system: participants with type 2 diabetes; type: in vivo, human; details: 32 weeks
[6] = system: patients with T2D and established CVD; type: in vivo, human
mice = type: in vivo, mouse; details: acute administration, n=7-8
[7] = system: thromboxane receptor, primary human myotubes; type: cell-based
[8] = system: isolated mouse skeletal muscle (EDL and soleus); type: cell-based; details: [14C]-glucose, n=7-8
patients with T2D = type: in vivo, human
patients with T2D and HF = type: in vivo, human
HHTg rats = type: in vivo, rat; details: 10 mg/kg/day, 8 weeks
HUVECs = type: cell-based, human
cultured human podocytes = type: cell-based
[9] = system: cultured subcutaneous adipocytes; type: cell-based; details: preliminary data
[10] = system: patients with type 2 diabetes; type: in vivo, human; details: Ipr 50 mg or Met 1000 mg, 24 weeks, n=15 per group
human islets = type: cell-based
[11] = system: people with type 2 diabetes; type: in vivo, human; details: 15 mg, 28 weeks
[12] = set-up: species or system human; details: in vivo
[13] = system: adults with type 2 diabetes; type: in vivo, human
EndocBH5 = type: cell-based, human; details: 96 well plates
LADA individuals [14] = details: corresponding findings in type 1 diabetes (n=56), ref not given, cited from earlier work
LADA individuals [15] = details: for GAD65 stimulation index of PBMC proliferation: LADA, median (Q1, Q3)
HHTg-OVX rats = type: in vivo, rat; details: 12.5 μg/kg b.wt./day s.c., 12 weeks
db/db mice = type: in vivo, mouse
isolated human islets = type: cell-based; details: metformin added after 0.5 day, n=7
[16] = system: male C57BL/6 mice on 45% HFD; details: mouse, in vivo
HCAECs = type: cell-based, human

Molecule: NC(=O)N1c2ccccc2C=Cc2ccccc21 [carbamazepine]
cytokine- and ER stress-induced β-cell death (human β-cells): protected | glucose-stimulated insulin secretion (perifused human islets): moderately reduced

Molecule: COc1ccc(C(=O)O[C@H]2CC[C@@]3(C)[C@@H]4CC[C@H]5[C@]6(O)C[C@H](O)[C@@]7(O)[C@@H](CN8C[C@@H](C)CC[C@H]8[C@@]7(C)O)[C@]6(O)C[C@@]53O[C@]24O)cc1OC [veratridine]
cytokine- and ER stress-induced β-cell death (human β-cells): increased cell death | glucose-stimulated insulin secretion (perifused human islets): increased insulin secretion

Molecule: oncostatin-M
stimulation of basal lipolysis [1]: +47%

Molecule: CC(C)OC(=O)C(C)(C)Oc1ccc(C(=O)c2ccc(Cl)cc2)cc1 [fenofibrate]
HR for primary outcome, patients with retinopathy at baseline [2]: 0.86

Molecule: CCOc1ccc(Cc2cc([C@@H]3O[C@H](CO)[C@@H](O)[C@H](O)[C@H]3O)ccc2Cl)cc1 [DAPA, dapagliflozin]
fractional renal extraction of glucose (T2DM and NGT subjects; NGT): 1.62± 1.4 | renal glucose uptake (T2DM and NGT subjects; NGT): 0.27 ± 0.08 mg/kg.min | fractional renal extraction of glucose (T2DM and NGT subjects; T2DM): 2.99±1.0 | renal glucose uptake (T2DM and NGT subjects; T2DM): 0.347 ± 0.06 mg/kg.min | mild hypoglycemia occurrence [3]: once

Molecule: Cc1ccc(S(=O)(=O)NC(=O)NN2CC3CCCC3C2)cc1 (stereo not drawn) [gliclazide]
insulin secretion after the OGTT [4]: increased | incidence of severe hypoglycaemia (patients with T2DM; female): 0.75 %/year | incidence of severe hypoglycaemia (patients with T2DM; male): 0.41 %/year

Molecule: OC[C@H]1O[C@@H](c2ccc(Cl)c(Cc3ccc(O[C@H]4CCOC4)cc3)c2)[C@H](O)[C@@H](O)[C@@H]1O [EMPA, Empagliflozin]
final body weight (HFD-fed C57BL/6J mice; 10 mg/kg/day oral gavage, HFD): 44.87 ± 1.42 g | FFA (HFD-fed C57BL/6J mice; 10 mg/kg/day): 746.30 ± 56.59 µmol/L | UACR (HFD-fed C57BL/6J mice; 10 mg/kg/day): 21.01 ± 1.99 µg/µmol | fat mass (HFD-fed C57BL/6J mice; 10 mg/kg/day): 11.75 ± 0.78 g | fat/weight (HFD-fed C57BL/6J mice; 10 mg/kg/day): 26.08 ± 1.09% | triglyceride (HFD-fed C57BL/6J mice; 10 mg/kg/day): 29.31 ± 2.71 mg/dL | change in GFR from baseline and compared to placebo [5]: -18 mL/min | OR (95% CI) for improved risk vs placebo ([6]; all baseline groups): 1.56 (1.30, 1.86) | OR (95% CI) for worsening risk vs placebo ([6]; all baseline groups): 0.70 (0.62, 0.78)

increase in glucose incorporation into glycogen ([7]; n=4): +398% | increase in glucose oxidation ([7]; n=5): +28% | increase in glucose uptake ([7]; n=5): +53%
Molecule: I-BOP
change in glucose tolerance AUC (mice): -34% | increase in ex-vivo skeletal muscle glucose oxidation [8]: +118%

Molecule: OC[C@H]1O[C@@H](c2ccc(Cl)c(Cc3ccc(O[C@H]4CCOC4)cc3)c2)[C@H](O)[C@@H](O)[C@@H]1O [empagliflozin]
∆LVEF Rest, E vs I (patients with T2D; cardiac MRI): -0±2% | ∆LVEF Rest, treatment vs washout (patients with T2D; cardiac MRI): 2 ±1% | ∆LVPFR Rest, E vs I (patients with T2D; cardiac MRI): -55 ± 19 mL/s | ∆LVPFR Rest, treatment vs washout (patients with T2D; cardiac MRI): -38 ± 19 mL/s | ∆LVEF Stress, E vs I (patients with T2D; chronotropic stress): 1±1% | ∆LVEF Stress, treatment vs washout (patients with T2D; chronotropic stress): -1±2% | ∆LVPFR Stress, E vs I (patients with T2D; chronotropic stress): -11 ± 47 mL/s | ∆LVPFR Stress, treatment vs washout (patients with T2D; chronotropic stress): -4 ± 45 mL/s | 3-OH butyrate (patients with T2D; fasting, end of 5 weeks): 0.27 ± 0.03 mM | FFAs (patients with T2D; fasting, end of 5 weeks): 0.60 ± 0.03 mM | serum insulin (patients with T2D; fasting, end of 5 weeks): 103 ± 14 pM | patients with improvement in KDIGO CKD risk ([6]; high baseline risk group): 27.1% | patients with worsening KDIGO CKD risk ([6]; high risk baseline group): 23.3% | patients with worsening KDIGO CKD risk ([6]; low risk baseline group, 10, 25 mg pooled): 26.0% | patients with improvement in KDIGO CKD risk ([6]; moderate baseline risk group): 24.6% | patients with worsening KDIGO CKD risk ([6]; moderate risk baseline group): 24.4% | patients with improvement in KDIGO CKD risk ([6]; very high baseline risk group): 26.2% | reduction of KIM-1 levels compared to placebo (patients with T2D and HF; 25 mg, week 48, EFFORT-2): 38% | LVEDD difference from placebo (patients with T2D and HF; week 24, EFFORT-1): -7.88 | LVEDD difference from placebo (patients with T2D and HF; week 48, EFFORT-1): -4.40 | posterior wall diameter difference from placebo (patients with T2D and HF; week 48, EFFORT-2): -2.29 | non-fasting glucose and insulin (HHTg rats): markedly decreased | serum triglycerides levels (HHTg rats): reduced | expression of inflammatory markers (HUVECs): did not significantly impact

Molecule: TGF-β
suppression of Tcf21 expression (cultured human podocytes): 58%

Molecule: Fas ligand [FasL]
isoproterenol-induced UCP1 protein levels [9]: decreased

Molecule: CN(C)C(=N)N=C(N)N [Met, Metformin]
change in visceral fat area [10]: -4.7% | caspase 3/7 activity (human islets; cytokines 48 h plus 2.4 μg/ml): 1.2±0.1 | insulin stimulation index (human islets; cytokines (IL-1β 50 U/ml + IFN-γ 1000 U/ml) 48 h plus 2.4 μg/ml, mean±SEM): 4.7±1.6

Molecule: tirzepatide [TZP]
insulin sensitivity (M-value), first and second phase ISR and beta-cell glucose sensitivity during EGC and HGC [11]: more than SEMA and placebo

Rates of hypoglycaemia at <3.9 to ≥3.0 mmol/L and <3.0 mmol/L [12]: did not differ between groups
Molecule: insulin glargine 300 U/mL [Gla-300]

Molecule: CC[C@H](C)[C@H](NC(=O)[C@H](CC(C)C)NC(=O)[C@H](Cc1c[nH]c2ccccc12)NC(=O)[C@H](CCC(N)=O)NC(=O)[C@@H](NC(=O)[C@H](Cc1ccccc1)NC(=O)[C@H](C)NC(=O)[C@H](CCCCNC(=O)COCCOCCNC(=O)COCCOCCNC(=O)CC[C@H](NC(=O)CCCCCCCCCCCCCCCCCCC(=O)O)C(=O)O)NC(=O)[C@H](CCC(N)=O)NC(=O)[C@H](C)NC(=O)[C@@H](NC(=O)[C@H](CCCCN)NC(=O)[C@H](CC(=O)O)NC(=O)[C@H](CC(C)C)NC(=O)C(C)(C)NC(=O)[C@@H](NC(=O)[C@H](CO)NC(=O)[C@H](Cc1ccc(O)cc1)NC(=O)[C@H](CC(=O)O)NC(=O)[C@H](CO)NC(=O)[C@@H](NC(=O)[C@H](Cc1ccccc1)NC(=O)[C@@H](NC(=O)CNC(=O)[C@H](CCC(=O)O)NC(=O)C(C)(C)NC(=O)[C@@H](N)Cc1ccc(O)cc1)[C@@H](C)O)[C@@H](C)O)[C@@H](C)CC)[C@@H](C)CC)C(C)C)C(=O)N[C@@H](C)C(=O)NCC(=O)NCC(=O)N1CCC[C@H]1C(=O)N[C@@H](CO)C(=O)N[C@@H](CO)C(=O)NCC(=O)N[C@@H](C)C(=O)N1CCC[C@H]1C(=O)N1CCC[C@H]1C(=O)N1CCC[C@H]1C(=O)N[C@@H](CO)C(N)=O [tirzepatide]
MD in triglycerides vs GLP-1 receptor agonists ([13]; 5 mg once weekly, random effects): -12.51 mg/dL | MD in triglycerides vs GLP-1 receptor agonists ([13]; 15 mg once weekly): -24.98 mg/dL | increased insulin secretion over high glucose (EndocBH5): > 3 fold

Molecule: rhGAD65
GAD65 stimulation index of PBMC proliferation (LADA individuals [14]; 2 months): 2.77 (1.96, 6.05) | GAD65 stimulation index of PBMC proliferation (LADA individuals [14]; 5 months): 3.19 (2.02, 6.19) | GAD65 stimulation index of PBMC proliferation (LADA individuals [15]; 2 months from baseline, 3 injections of 4 μg): 2.16 (1.25, 3.06) | GAD65 stimulation index of PBMC proliferation (LADA individuals [15]; 5 months from baseline): 2.34 (1.81, 3.58) | postprandial 2 hour C-peptide (LADA individuals [15]; in vivo): 1.45 (1.25, 1.85) nmol/L | serious adverse events (LADA individuals [15]; interim analysis at 5 months): no treatment-related serious adverse events

Molecule: C[C@]12CC[C@@H]3c4ccc(O)cc4CC[C@H]3[C@@H]1CC[C@@H]2O [Estradiol, 17-β estradiol]
change in ectopic TAG deposition, kidneys (HHTg-OVX rats): -23% | change in ectopic TAG deposition, liver (HHTg-OVX rats): -16%

Molecule: C[C@H]1N=C(N(C)C)N=C(N)N1 [Imeglimin]
random blood glucose levels vs vehicle (db/db mice; 150 mg/kg B.I.D. oral, age 6-10 weeks): significantly lower | loss of RI intensity in the pancreas (SPECT/CT) (db/db mice; at 10 weeks): significantly attenuated

Molecule: CN(C)C(=N)N=C(N)N [metformin]
reduction of insulin secretion vs 1 day palmitate only (isolated human islets): 18% | loss of excess body weight vs untreated mice [16]: 30%

Molecule: CCL5
endothelial function (HCAECs): displayed endothelial dysfunction
